Reference: patent US20220133753A1, “COMPOSITIONS AND METHODS USEFUL FOR TREATING DISEASES CHARACTERIZED BY INSUFFICIENT PANTOTHENATE KINASE ACTIVITY” (Comet Therapeutics, Inc., priority 2016, published 2022)
Entries after “also recorded” stand apart in the source; their conditions may differ.

Assays:
[1] = Parallel Artificial Membrane Permeability Assay (PAMPA); assay type: in vitro ADME; conditions: 5 h incubation, room temperature, phosphate-buffered saline
Procedure: FIG. 13E is a depiction of a Parallel Artificial Membrane Permeability Assay (PAMPA). Experiments were performed according to the manufacturer's instructions. In this assay, a two-well system is separated by an artificial lipid-oil-lipid membrane (shown in grey). To the lower (donor) compartment, a compound dissolved in buffer is added, the upper (acceptor) compartment contains only buffer. After 5 hours of incubation, concentration of compound is measured in both wells to assess its propensity to diffuse over the artificial membrane. The permeability was calculated according to the manufacturer's instruction (formulas are depicted to the right). Compounds that are below the assay threshold are predicted to be unable to pass membranes passively, whereas compounds above the threshold are able to pass membranes passively. Ceq=Equilibrium Concentration, CD=Concentration in donor well, VD=Volume of donor well (0.3 ml), CA=Concentration in acceptor well, VA=Volume of acceptor well (0.2 ml), P=Permeability, S=Membrane area (0.3 cm2), t=Incubation time (18000 s).
PAMPA assay procedure: Parallel Artificial Membrane Permeability Assay (PAMPA) was performed and processed according to manufacturer's instructions (BD Gentest Pre-coated PAMPA plates). Briefly, two superimposed wells are separated by an artificial lipid-oil-lipid membrane. The compound of interest (PPanSH, CoA, caffeine, amiloride) was added to the bottom well in phosphate-buffered saline, whereas the top well was filled with phosphate-buffered saline alone. After 5 h of incubation at room temperature, concentrations of the different compounds were measured using UV-VIS absorption spectroscopy (BMG Labtech SPECTROstar Omega) along with calibration curves for all compounds. The permeability efficiency was further calculated according to manufacturer's instructions. For caffeine and amiloride, four replicates were performed; for PPanSH and CoA twelve replicates were performed. Caffeine and amiloride were obtained from Sigma.

[2] = test system: homozygous dPPCDC mutants and dPPCDC RNAi expressing flies; experiment: Drosophila dPPCDC mutant and dPPCDC RNAi flies, development, lifespan and fertility with CoA or Vitamin B5; assay type: in vivo, Drosophila melanogaster
Procedure: (§1) Drosophila Maintenance and Crosses: Drosophila melanogaster stocks/crosses were raised on standard cornmeal agar fly food (containing water, agar 17 g/L, sugar 54 g/L, yeast extract 26 g/L and nipagin 1.3 g/L) at 25° C. The stocks were either obtained from the Bloomington Stock Centre (Indiana University, USA), VDRC (Vienna Drosophila RNAi Collection, Vienna, Austria) or from the Exelixis Collection (Harvard Medical School) and rebalanced to generate eGFP-positive balancers. The stocks used were: w1118; dPANK/fbl1 hypomorph5,6; dPANK/fblnull (y[1] w[*]; Mi{y[+mDint2]=MIC}fbl[MI04001]/TM3, Sb[1] Ser[1], Bloomington 36941); dPPCDC mutant (w[1118], PBac{w[+mC]=WH}Ppcdc[f00839]/CyO, Bloomington 18377); UAS-dPPCDCRNAi line (VDRC 104495); dCOASY mutant (PBac{RB}Ppat-Dpck[e00492], Exelixis). The UAS-RNAi constructs were expressed ubiquitously using the Actin-Gal4 drivers (y[1] w[*]; P{w[+mC]=Act5C-GAL4}25FO1/CyO, y[+], Bloomington 4414). […]
(§2) Drosophila Life Span: One-day old adults of Drosophila homozygous mutants or RNAi-constructs expressing lines, were collected with appropriate controls and were kept on standard fly food at 25° C. with or without CoA or Vitamin B5 (Sigma) at necessary concentration (50 ul added on top of the fly food and dried). The flies were counted every 12-24 hrs and flipped to new fly food vials with or without CoA or Vitamin B5.
Drosophila Ovary Rescue Experiment: UAS-dPPCDC RNAi constructs were ubiquitously expressed under the control of Actin-Gal4. […] The vials (or plates) from the crosses (with eggs that were being laid during the 4 day period of CoA rescue) were kept for another 10 days and offspring numbers were counted after eclosion.
Drosophila Ovary dissection and staining: Drosophila ovaries were collected in cold PBS and fixed in 4% formaldehyde (from methanol-free 16% Formaldehyde Solution, Thermo Scientific) for 45 min at RT. […] Finally the samples were mounted in 80% glycerol and analyzed on a Zeiss-LSM780 NLO confocal microscope with Zeiss Zen software. […]

[3] = test system: homozygous dPANK/fbl1 and dPANK/fblnull mutants; experiment: Drosophila dPANK/fbl mutants, lifespan and development with CoA or Vitamin B5 in the food; assay type: in vivo, Drosophila melanogaster; conditions: CoA added to the food
Procedure: as §1, §2

In the case of `CC(C)(COP(=O)(O)OP(=O)(O)OC[C@H]1O[C@@H](n2cnc3c(N)ncnc32)[C@H](O)[C@@H]1OP(=O)(O)O)[C@@H](O)C(=O)NCCC(=O)NCCS` [CoA, Coenzyme A], the “membrane permeation (PAMPA)” value [1] is reported as “poorly permeating molecule and not”, the “egg production and fertility of females” value ([2]; dPPCDC RNAi expressing females) is reported as “improved egg-production significantly; also recorded: produced a significant number of eggs; also recorded: produced viable eggs that resulted in offspring” and the “lifespan with CoA” value ([2]; dPPCDC RNAi expressing flies, CoA added to the food, from 10 days without) is reported as 30 days. For the same compound, the “development with CoA” value ([2]; homozygous dPPCDC mutants, CoA added to the food) was “extended larval development to late pupal stage”, the “lifespan with CoA” value ([3]; homozygous dPANK/fbl1 mutants, from 20 days without) was 40 days and the “development with CoA” value ([3]; homozygous dPANK/fblnull mutants) was “extended development from the L2 stage to early pupal development”.
